# Laboratory results from publication PMC9913425, “Pentacyclic Triterpenoids-Based Ionic Compounds: Synthesis, Study of Structure–Antitumor Activity Relationship, Effects on Mitochondria and Activation of Signaling Pathways of Proliferation, Genome Reparation and Early Apoptosis” (Cancers, 2023).
# Experiments:
# [1] = system: HL60; test: In vitro cytotoxicity, IC50 by flow cytometry (Guava ViaCount); format: cell-based, human
# Description: (§1) Human cancer cell line HeLa, HL60, A2780 was obtained from the HPA Culture Collections (Salisbury, UK). Cells (Jurkat, K562, U937, Hek293, Fibroblasts) were purchased from Russian Cell Culture Collection (Institute of Cytology of the Russian Academy of Sciences, […], Russia) and cultured according to standard protocols and sterile technique. […] Cells were maintained in RPMI 1640 (Jurkat, K562, U937, HL60) (Gibco, Billings, MT, USA) supplemented with […], 10% FBS (Sigma) and 100 units/mL penicillin–streptomycin (Sigma). All types of cells were grown in an atmosphere of 5% CO2 at 37 °C. The cells were subcultured at 2–3 days intervals. Cells were then seeded in 24-well plates at 5 × 10^4 cells per well and incubated overnight. Jurkat, K562, U937, HL60 cells were subcultured at 2-day intervals with a seeding density of 1 × 10^5 cells per 24-well plates in RPMI with 10% FBS.
# (§2) The antitumor activity of the synthesized ionic compounds was initially assessed in vitro on Jurkat, K562, U937, HL60, HEK293, A2780 cell lines, including the determination of IC50 by flow cytometry involving Guava ViaCount (Millipore) reagent kits.
# [2] = system: A2780; test: as above; format: cell-based, human
# Description: as §1, §2
# [3] = system: mitochondria of Jurkat tumor cells; test: Mitochondrial damage (MitoSense Red staining); format: cell-based; conditions: compound at IC50 concentration, incubation 2 h
# [4] = system: Jurkat cells; test: Apoptosis/necrosis induction (Annexin V Alexa Fluor488, 7AAD staining); format: cell-based; conditions: compound at IC50 concentration, incubation 2 h
# Source text: Multiparametric evaluation of marker molecules, along with the detection of damage to the mitochondrial membrane, makes it possible to clearly determine the type of cell death. The method of cell staining with three different dyes (Annexin V Alexa Fluor488, 7AAD and MitoSense Red) provides simultaneous specification of various aspects of the state of the cell membrane, the state of DNA and the viability of mitochondria; together, it is a reliable sign of intrinsic and mitochondrial apoptosis pathway. Normal cells with intact mitochondrial membranes have high MitoSense Red fluorescence, while cells with decoupled oxidation and phosphorylation have much lower fluorescence. […]
# Figure 1 The ratio of the level of mito-damage and the level of apoptosis in Jurkat cells of ionic compounds based on ursolic, oleanolic and betulinic acids.
# [5] = system: Jurkat; test: In vitro cytotoxicity, IC50 by flow cytometry (Guava ViaCount); format: cell-based; conditions: Jurkat cells
# Description: as §1, §2
# [6] = system: K562; test: as above; format: cell-based
# Description: as §1, §2
# [7] = system: U937; test: as above; format: cell-based
# Description: as §1, §2
# [8] = system: HEK293; test: as above; format: cell-based; conditions: conditionally normal
# Description: as §1, §2
# [9] = Homo sapiens, HL-60, HL60 cells
# [10] = Homo sapiens, A2780, A2780 cells
# [11] = Homo sapiens, U-937, U937 cells
# [12] = Homo sapiens, HEK293, HEK293 cells
compound,measurement,setting,value
1-Benzyl-3-methylimidazolium (3β)-3-hydroxyolup-20(29)-en28-oylate [17d],IC50,[1]; HL60 cells,0.019 ± 0.002 µM
same,IC50,[2]; A2780 cells,0.087 ± 0.009 µM
same,Mito-Damage (%),[3],9.69%
same,Apoptosis (%) Early,[4],4.82%
same,Apoptosis (%) Late,[4],1.44%
same,Apoptosis (%) Necrosis,[4],2.11%
same,IC50,[5],0.016 ± 0.001 µM
same,IC50,[6]; K562 cells,0.044 ± 0.002 µM
same,IC50,[7]; U937 cells,0.04 ± 0.002 µM
same,IC50,[8]; HEK293 cells,0.189 ± 0.016 µM
1-Butyl-3-methylimidazolium (3β)-3-hydroxyolup-20(29)-en28-oylate [17b],IC50,[1]; HL60 cells,0.015 ± 0.001 µM
same,IC50,[2]; A2780 cells,0.074 ± 0.006 µM
same,Mito-Damage (%),[3],17.39%
same,Apoptosis (%) Early,[4],6.45%
same,Apoptosis (%) Late,[4],3.38%
same,Apoptosis (%) Necrosis,[4],1.92%
same,IC50,[5],0.014 ± 0.001 µM
same,IC50,[6]; K562 cells,0.039 ± 0.003 µM
same,IC50,[7]; U937 cells,0.032 ± 0.003 µM
same,IC50,[8]; HEK293 cells,0.159 ± 0.014 µM
"CC1(C)CC[C@]2(C(=O)OCCCCCC[N+]3(C)CCOCC3)CC[C@]3(C)C(=CCC4[C@@]5(C)CC[C@H](O)C(C)(C)C5CC[C@]43C)C2C1 (stereo partly drawn) [12d, 4-(6-{[(3β)-3-Hydroxyolean-12-en-28-oyl]oxy}hexyl)-4-methylmorpholinium bromide]",IC50,[1]; [9],0.017 ± 0.001 µM
same,IC50,[2]; [10],0.041 ± 0.004 µM
same,Mito-Damage (%),[3],62.11%
same,Apoptosis (%) Early,[4],0.0%
same,Apoptosis (%) Late,[4],36.14%
same,Apoptosis (%) Necrosis,[4],22.63%
same,IC50,"[5]; Homo sapiens, Jurkat",0.022 ± 0.002 µM
same,IC50,"[6]; Homo sapiens, K562, K562 cells",0.069 ± 0.003 µM
same,IC50,[7]; [11],0.059 ± 0.003 µM
same,IC50,[8]; [12],0.086 ± 0.008 µM
"C[C@@H]1CC[C@]2(C(=O)OCCn3cc[n+](C)c3)CC[C@]3(C)C(=CCC4[C@@]5(C)CC[C@H](O)C(C)(C)C5CC[C@]43C)C2[C@H]1C (stereo partly drawn) [10a, 1-(2-{[(3β)-3-Hydroxyurs-12-en-28-oyl]oxy}ethyl)-3-methylimidazolium bromide]",IC50,[1]; [9],0.008 ± 0.001 µM
same,IC50,[2]; [10],0.059 ± 0.005 µM
same,Mito-Damage (%),[3],11.01%
same,Apoptosis (%) Early,[4],10.43%
same,Apoptosis (%) Late,[4],5.01%
same,Apoptosis (%) Necrosis,[4],0.71%
same,IC50,"[5]; Homo sapiens, Jurkat",0.017 ± 0.001 µM
same,IC50,"[6]; Homo sapiens, K562, K562 cells",0.031 ± 0.002 µM
same,IC50,[7]; [11],0.027 ± 0.002 µM
same,IC50,[8]; [12],0.091 ± 0.009 µM
C=C(C)[C@@H]1CC[C@]2(C(=O)OCCCCCCn3cc[n+](C)c3)CC[C@]3(C)C(CCC4[C@@]5(C)CC[C@H](O)C(C)(C)C5CC[C@]43C)C12 (stereo partly shown) [11c],IC50,[1]; [9],0.006 ± 0.001 µM
same,IC50,[2]; [10],0.036 ± 0.003 µM
same,Mito-Damage (%),[3],25.72%
same,Apoptosis (%) Early,[4],15.59%
same,Apoptosis (%) Late,[4],1.82%
same,Apoptosis (%) Necrosis,[4],4.37%
same,IC50,"[5]; Homo sapiens, Jurkat",0.039 ± 0.004 µM
same,IC50,"[6]; Homo sapiens, K562, K562 cells",0.021 ± 0.001 µM
same,IC50,[7]; [11],0.019 ± 0.001 µM
same,IC50,[8]; [12],0.054 ± 0.005 µM
"Cn1cc[n+](CCCCCCOC(=O)[C@]23CCC(C)(C)C[C@H]2C2=CC[C@@H]4[C@@]5(C)CC[C@H](O)C(C)(C)[C@@H]5CC[C@@]4(C)[C@]2(C)CC3)c1.F[P-](F)(F)(F)(F)F [13c, 1-(6-{[(3β)-3-Hydroxyolean-12-en-28-oyl]oxy}hexyl)-3-methylimidazolium Hexafluorophosphate]",IC50,[1]; HL60 cells,0.003 ± 0.001 µM
same,IC50,[2]; A2780 cells,0.014 ± 0.001 µM
same,Mito-Damage (%),[3],8.32%
same,Apoptosis (%) Early,[4],3.62%
same,Apoptosis (%) Late,[4],5.20%
same,Apoptosis (%) Necrosis,[4],1.78%
same,IC50,[5],0.008 ± 0.001 µM
same,IC50,[6]; K562 cells,0.007 ± 0.001 µM
same,IC50,[7]; U937 cells,0.005 ± 0.001 µM
same,IC50,[8]; HEK293 cells,0.032 ± 0.003 µM
"C[n+]1ccn(CCOC(=O)[C@]23CCC(C)(C)CC2C2=CCC4[C@@]5(C)CC[C@H](O)C(C)(C)C5CC[C@@]4(C)[C@]2(C)CC3)c1 (stereo partly drawn) [9a, 1-(2-{[(3β)-3-Hydroxyolean-12-en-28-oyl]oxy}ethyl)-3-methylimidazolium Bromide]",IC50,[1]; [9],0.024 ± 0.002 µM
same,IC50,[2]; [10],0.132 ± 0.011 µM
same,Mito-Damage (%),[3],5.07%
same,Apoptosis (%) Early,[4],1.72%
same,Apoptosis (%) Late,[4],2.79%
same,Apoptosis (%) Necrosis,[4],1.96%
same,IC50,"[5]; Homo sapiens, Jurkat",0.037 ± 0.002 µM
same,IC50,"[6]; Homo sapiens, K562, K562 cells",0.078 ± 0.004 µM
same,IC50,[7]; [11],0.069 ± 0.004 µM
same,IC50,[8]; [12],0.259 ± 0.024 µM
"CC1(C)CC[C@]2(C(=O)OCCCCCC[N+]3(C)CCCC3)CC[C@]3(C)C(=CCC4[C@@]5(C)CC[C@H](O)C(C)(C)C5CC[C@]43C)C2C1 (stereo partly drawn) [12c, 1-(6-{[(3β)-3-Hydroxyolean-12-en-28-oyl]oxy}hexyl)-1-methylpyrrolidinium bromide]",IC50,[1]; [9],0.027 ± 0.002 µM
same,IC50,[2]; [10],0.039 ± 0.004 µM
same,Mito-Damage (%),[3],74.26%
same,Apoptosis (%) Early,[4],0.7%
same,Apoptosis (%) Late,[4],33.66%
same,Apoptosis (%) Necrosis,[4],0.99%
same,percentage of cells in the apoptotic state,[4],35%
same,IC50,"[5]; Homo sapiens, Jurkat",0.011 ± 0.001 µM
same,IC50,"[6]; Homo sapiens, K562, K562 cells",0.024 ± 0.001 µM
same,IC50,[7]; [11],0.021 ± 0.001 µM
same,IC50,[8]; [12],0.081 ± 0.008 µM
1-Hexyl-3-methylimidazolium (3β)-3-hydroxyolup-20(29)-en28-oylate [17c],IC50,[1]; HL60 cells,0.026 ± 0.003 µM
same,IC50,[2]; A2780 cells,0.113 ± 0.01 µM
same,Mito-Damage (%),[3],8.71%
same,Apoptosis (%) Early,[4],3.97%
same,Apoptosis (%) Late,[4],1.70%
same,Apoptosis (%) Necrosis,[4],2.82%
same,IC50,[5],0.029 ± 0.002 µM
same,IC50,[6]; K562 cells,0.056 ± 0.003 µM
same,IC50,[7]; U937 cells,0.054 ± 0.003 µM
same,IC50,[8]; HEK293 cells,0.293 ± 0.031 µM
"CC1(C)CC[C@]2(C(=O)OCCCCCC[N+]3(C)CCCCC3)CC[C@]3(C)C(=CCC4[C@@]5(C)CC[C@H](O)C(C)(C)C5CC[C@]43C)C2C1 (stereo partly drawn) [12b, 1-(6-{[(3β)-3-Hydroxyolean-12-en-28-oyl]oxy}hexyl)-1-methylpiperidinium bromide]",IC50,[1]; [9],0.024 ± 0.002 µM
same,IC50,[2]; [10],0.034 ± 0.003 µM
same,Mito-Damage (%),[3],23.49%
same,Apoptosis (%) Early,[4],3.21%
same,Apoptosis (%) Late,[4],18.13%
same,Apoptosis (%) Necrosis,[4],1.9%
same,IC50,"[5]; Homo sapiens, Jurkat",0.009 ± 0.001 µM
same,IC50,"[6]; Homo sapiens, K562, K562 cells",0.021 ± 0.001 µM
same,IC50,[7]; [11],0.019 ± 0.001 µM
same,IC50,[8]; [12],0.076 ± 0.007 µM
"C=C(C)[C@@H]1CC[C@]2(C(=O)OCCn3cc[n+](C)c3)CC[C@]3(C)C(CCC4[C@@]5(C)CC[C@H](O)C(C)(C)C5CC[C@]43C)C12 (stereo partly drawn) [11a, 1-(2-{[(3β)-3-Hydroxylup-20(29)-en-28-oyl]oxy}ethyl)-3-methylimidazolium bromide]",IC50,[1]; [9],0.022 ± 0.002 µM
same,IC50,[2]; [10],0.132 ± 0.012 µM
same,Mito-Damage (%),[3],5.26%
same,Apoptosis (%) Early,[4],6.58%
same,Apoptosis (%) Late,[4],0.74%
same,Apoptosis (%) Necrosis,[4],0.56%
same,IC50,"[5]; Homo sapiens, Jurkat",0.025 ± 0.001 µM
same,IC50,"[6]; Homo sapiens, K562, K562 cells",0.076 ± 0.004 µM
same,IC50,[7]; [11],0.069 ± 0.003 µM
same,IC50,[8]; [12],0.237 ± 0.021 µM
"Cn1cc[n+](CCCCCCOC(=O)C23CCC(C)(C)CC2C2=CCC4C5(C)CCC(O)C(C)(C)C5CCC4(C)C2(C)CC3)c1.[F][Sb-]([F])([F])([F])([F])[F] (stereo not drawn) [13b, 1-(6-{[(3β)-3-Hydroxyolean-12-en-28-oyl]oxy}hexyl)-3-methylimidazolium Hexafluoroantimonate]",IC50,[1]; HL60 cells,0.003 ± 0.001 µM
same,IC50,[2]; A2780 cells,0.021 ± 0.002 µM
same,Mito-Damage (%),[3],35.72%
same,Apoptosis (%) Early,[4],2.35%
same,Apoptosis (%) Late,[4],17.49%
same,Apoptosis (%) Necrosis,[4],4.68%
same,IC50,[5],0.009 ± 0.001 µM
same,IC50,[6]; K562 cells,0.012 ± 0.001 µM
same,IC50,[7]; U937 cells,0.01 ± 0.001 µM
same,IC50,[8]; HEK293 cells,0.039 ± 0.003 µM
